# Data taken from paper PMC6234229, “The role of loops B and C in determining the potentiation of GABAA receptors by midazolam” (Pharmacology Research & Perspectives, 2018).
# Columns and labels:
# Test in all cases: GABA concentration-response assay, whole-cell patch clamp, HEK293T
# Assay type in all cases: cell-based
# Conditions in all cases: GABA Hill fit
# α6β2γ2 GABAA receptor = target: T1, α6β2γ2 GABAA receptor (Homo sapiens, UniProt P18507+P47870+Q16445)
# T1 construct: expressed in transfected cells; host or cells: HEK293T
# T1 sequence (Q16445 20-453): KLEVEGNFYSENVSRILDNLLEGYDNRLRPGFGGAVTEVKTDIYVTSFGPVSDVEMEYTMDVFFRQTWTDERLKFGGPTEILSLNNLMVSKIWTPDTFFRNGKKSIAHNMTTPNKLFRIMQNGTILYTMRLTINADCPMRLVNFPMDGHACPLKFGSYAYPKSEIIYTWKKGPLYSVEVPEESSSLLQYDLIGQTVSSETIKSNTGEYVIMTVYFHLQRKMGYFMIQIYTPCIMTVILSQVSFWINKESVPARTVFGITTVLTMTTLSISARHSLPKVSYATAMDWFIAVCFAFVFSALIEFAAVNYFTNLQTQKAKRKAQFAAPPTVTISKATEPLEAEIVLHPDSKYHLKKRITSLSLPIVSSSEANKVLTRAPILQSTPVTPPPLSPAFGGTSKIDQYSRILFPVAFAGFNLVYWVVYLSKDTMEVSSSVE
# T1 sequence (P47870 26-474 isoform P47870-1 limits assumed): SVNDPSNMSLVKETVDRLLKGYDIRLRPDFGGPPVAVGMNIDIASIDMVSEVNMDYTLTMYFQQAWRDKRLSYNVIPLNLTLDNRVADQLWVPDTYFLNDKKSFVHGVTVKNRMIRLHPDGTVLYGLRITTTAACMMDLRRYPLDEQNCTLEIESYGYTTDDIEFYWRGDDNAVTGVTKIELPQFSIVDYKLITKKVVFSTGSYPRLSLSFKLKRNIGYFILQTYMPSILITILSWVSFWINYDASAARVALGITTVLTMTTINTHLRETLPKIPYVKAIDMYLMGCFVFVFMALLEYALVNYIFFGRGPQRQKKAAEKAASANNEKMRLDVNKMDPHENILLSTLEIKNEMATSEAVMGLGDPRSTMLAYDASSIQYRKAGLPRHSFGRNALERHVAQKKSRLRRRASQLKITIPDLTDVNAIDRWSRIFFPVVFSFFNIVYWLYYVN
# T1 sequence (P18507 40-467 isoform P18507-1 limits assumed): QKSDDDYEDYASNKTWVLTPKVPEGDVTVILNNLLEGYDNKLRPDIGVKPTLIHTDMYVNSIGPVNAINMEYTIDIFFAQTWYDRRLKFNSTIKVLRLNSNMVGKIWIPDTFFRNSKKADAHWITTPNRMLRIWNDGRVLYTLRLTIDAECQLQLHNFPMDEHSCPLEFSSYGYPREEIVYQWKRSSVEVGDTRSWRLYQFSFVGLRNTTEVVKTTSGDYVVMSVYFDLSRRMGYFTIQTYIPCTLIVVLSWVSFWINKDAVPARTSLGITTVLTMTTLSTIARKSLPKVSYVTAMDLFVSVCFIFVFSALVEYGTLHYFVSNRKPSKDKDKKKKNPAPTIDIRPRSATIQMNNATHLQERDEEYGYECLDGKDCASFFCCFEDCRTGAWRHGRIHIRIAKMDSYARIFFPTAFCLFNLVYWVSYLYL
# Excerpt: (§1) Human (Homo sapiens) GABAA subunits (α1‐6, β2, γ2s) were subcloned into pcDNA3.1+ vectors with a cytomegalovirus (CMV) promoter. The hβ2 and hα3 sequences were humanized rat (Rattus norvegicus) cDNA with amino acid substitutions made to match the human protein sequence. The α1‐3, α5, β2, and γ2s subunits were a generous gift from Neil L. Harrison (Columbia University Medical Center, NY). The α4 subunit was obtained from GenScript (Piscataway, NJ), and the α6 subunit was a generous gift from Robert L. McDonald (Vanderbilt University, TN). All point mutations (listed in Figure 1C) were introduced using the QuikChange Lightening site‐directed mutagenesis kit (Agilent Technologies, Santa Clara, CA) according to the manufacturer's instructions and were confirmed by sequencing (Eurofins MWG Operon, Louisville, KY).
# (§2) Human embryonic kidney cells containing the SV40 T‐antigen (HEK293T) were acquired from American Type Culture Collection (ATCC®, Manassas, VA), catalogue number, CRL3216. HEK293T cells were maintained at 37°C and 5% CO2 in Eagle Minimum Essential Medium (MEM) supplemented with 5% fetal bovine serum (Atlanta Biologicals Inc., Flowery Branch, GA), 40 μM L‐glutamine, 100 U/mL penicillin and 0.1 mM streptomycin. Cells were passaged regularly when they reached 70% confluency using trypsin. Cells were not passaged more than 22 times. New cells were revived from frozen stocks at passage 2‐4. Cells used for in vitro electrophysiology experiments were grown on poly‐D‐lysine‐coated glass coverslips (No.2, VWR, Radnor, PA) and transfected with X‐tremeGENE (Roche Diagnostics, Indianapolis, IN) with the desired receptor subunit cDNAs at a 1:1:1 ratio to express αxβ2γ2s receptors (2 μg total cDNA) and with 0.5 μg green fluorescent protein (GFP) as an expression marker. The γ2s incorporation into receptors was tested with zinc inhibition assays regularly.24 Patch clamp experiments were performed on cells at 24‐72 hours post‐transfection. All experiments were performed at 22°C. Experiments consisted of at least five cells recorded per day from at least two transfections across 3‐4 days to control for cell health and transfection efficiency. At least three cells expressing wild‐type receptors were recorded on days that mutant receptors were tested to provide a time‐matched expression control. All reagents were purchased from Sigma‐Aldrich (St. Louis, MO) unless otherwise stated.
# (§3) Extracellular solution contained 161 mM NaCl, 3 mM KCl, 1 mM MgCl2, 1.5 mM CaCl2, 10 mM HEPES, and 6 mM D‐glucose, adjusted to pH 7.4 with NaOH (320‐330 mOsm). […] The perfusion system was controlled by protocols written in pClamp 9 (Molecular Devices, LLC., Sunnyvale, CA). Whole‐cell currents were recorded at ‐60 mV, filtered at 100 Hz and sampled at 200 Hz with a MultiClamp 700B amplifier (Molecular Devices, LLC) and DigiData 1322A (Molecular Devices, LLC) digitizer. […] Cells were recorded with the midazolam protocol no more than two times to avoid desensitization and incomplete washout or irreversible modulation.
# (§4) Recordings were analyzed using MATLAB (Math Works, Inc., Natick, MA). […] The maximum peak current, EC50 and Hill coefficient were estimated for assays from each cell. When Hill parameters are estimated from whole‐cell recordings, the changes in the parameters across receptor conditions can be ascribed to the following changes in receptor physiology. Changes in maximum current can be due to changes in the single‐channel conductance or the rate of desensitization. Changes in cell surface receptor expression can cause minor changes in maximum current, but are unlikely to occur in the time course of our experimental protocol. […] More often minor changes in the Hill coefficient are attributed to the altered homogeneity in the receptor population expressed by the HEK293T cell. For example, a shallower Hill coefficient could be caused by a shift in the population of receptors from mostly αβγ receptors to a combination of both αβ and αβγ receptors.
# [1] = target: T2, α4(P161T)β2γ2 GABAA receptor (Homo sapiens, UniProt P18507+P47870+P48169, P196T)
# T2 construct: expressed in transfected cells; host or cells: HEK293T
# Excerpt: as §1, §2, §3, §4
# [2] = target: T3, α3(S230I)β2γ2 GABAA receptor (Homo sapiens, UniProt P18507+P34903+P47870, S258I)
# T3 construct: expressed in transfected cells; host or cells: HEK293T
# Excerpt: as §1, §2, §3, §4
# [3] = target: T4, α2(S205I)β2γ2 GABAA receptor (Homo sapiens, UniProt P18507+P47869+P47870, S233I)
# T4 construct: expressed in transfected cells; host or cells: HEK293T
# Excerpt: as §1, §2, §3, §4
# α4β2γ2 GABAA receptor = target: T5, α4β2γ2 GABAA receptor (Homo sapiens, UniProt P18507+P47870+P48169)
# T5 construct: expressed in transfected cells; host or cells: HEK293T
# Excerpt: as §1, §2, §3, §4
# [4] = target: T6, α1(S206I)β2γ2 GABAA receptor (Homo sapiens, UniProt P14867+P18507+P47870, S233I)
# T6 construct: expressed in transfected cells; host or cells: HEK293T
# Excerpt: as §1, §2, §3, §4
# α1β2γ2 GABAA receptor = target: T7, α1β2γ2 GABAA receptor (Homo sapiens, UniProt P14867+P18507+P47870)
# T7 construct: expressed in transfected cells; host or cells: HEK293T
# Excerpt: as §1, §2, §3, §4
# [5] = target: T8, α2(T162P)β2γ2 GABAA receptor (Homo sapiens, UniProt P18507+P47869+P47870, T190P)
# T8 construct: expressed in transfected cells; host or cells: HEK293T
# T8 sequence (P47869 29-451 T190P): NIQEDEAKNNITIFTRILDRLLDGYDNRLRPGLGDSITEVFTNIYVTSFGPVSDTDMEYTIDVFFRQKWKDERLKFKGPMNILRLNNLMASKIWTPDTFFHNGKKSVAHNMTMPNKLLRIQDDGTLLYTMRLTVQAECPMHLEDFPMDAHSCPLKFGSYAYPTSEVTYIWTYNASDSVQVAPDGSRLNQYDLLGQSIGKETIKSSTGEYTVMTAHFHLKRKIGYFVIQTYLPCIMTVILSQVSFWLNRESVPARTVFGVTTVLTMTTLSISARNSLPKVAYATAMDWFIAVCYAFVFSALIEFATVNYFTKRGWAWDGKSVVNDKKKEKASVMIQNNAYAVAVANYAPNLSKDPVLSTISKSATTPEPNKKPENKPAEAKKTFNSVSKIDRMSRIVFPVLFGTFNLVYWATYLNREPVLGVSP
# T8 sequence (P47870 25-512 limits assumed): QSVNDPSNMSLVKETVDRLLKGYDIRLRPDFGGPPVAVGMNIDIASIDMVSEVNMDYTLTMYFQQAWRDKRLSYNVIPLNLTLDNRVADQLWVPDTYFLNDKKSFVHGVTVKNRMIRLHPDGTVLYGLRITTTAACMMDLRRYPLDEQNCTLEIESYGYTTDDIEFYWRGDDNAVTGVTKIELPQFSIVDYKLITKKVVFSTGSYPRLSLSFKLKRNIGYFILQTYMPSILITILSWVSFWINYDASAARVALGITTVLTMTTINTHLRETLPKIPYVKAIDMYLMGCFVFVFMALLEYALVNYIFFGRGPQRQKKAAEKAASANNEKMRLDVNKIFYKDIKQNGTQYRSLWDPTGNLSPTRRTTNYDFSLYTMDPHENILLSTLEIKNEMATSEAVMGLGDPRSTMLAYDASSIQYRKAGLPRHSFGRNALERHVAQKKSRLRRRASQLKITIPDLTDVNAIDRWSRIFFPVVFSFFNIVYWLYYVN
# T8 sequence (P18507 40-467 isoform P18507-1 limits assumed, stated change not applied): as the sequence (P18507 40-467 isoform P18507-1 limits assumed) above
# Excerpt: as §1, §2, §3, §4
# α5β2γ2 GABAA receptor = target: T9, α5β2γ2 GABAA receptor (Homo sapiens, UniProt P18507+P31644+P47870)
# T9 construct: expressed in transfected cells; host or cells: HEK293T
# Excerpt: as §1, §2, §3, §4
# [6] = target: T10, α5(P166T)β2γ2 GABAA receptor (Homo sapiens, UniProt P18507+P31644+P47870, P197T)
# T10 construct: expressed in transfected cells; host or cells: HEK293T
# Excerpt: as §1, §2, §3, §4
# α2β2γ2 GABAA receptor = target: T11, α2β2γ2 GABAA receptor (Homo sapiens, UniProt P18507+P47869+P47870)
# T11 construct: expressed in transfected cells; host or cells: HEK293T
# T11 sequence (P47869 29-451): as the sequence (P47869 29-451 T190P) above, with P162T counted along it
# T11 sequence (P47870 25-512 limits assumed): as the sequence (P47870 25-512 limits assumed) above
# T11 sequence (P18507 40-467 isoform P18507-1 limits assumed): as the sequence (P18507 40-467 isoform P18507-1 limits assumed) above
# Excerpt: as §1, §2, §3, §4
# [7] = target: T12, α3(T187P)β2γ2 GABAA receptor (Homo sapiens, UniProt P18507+P34903+P47870, T215P)
# T12 construct: expressed in transfected cells; host or cells: HEK293T
# Excerpt: as §1, §2, §3, §4
# [8] = target: T13, α5(S209I)β2γ2 GABAA receptor (Homo sapiens, UniProt P18507+P31644+P47870, S240I)
# T13 construct: expressed in transfected cells; host or cells: HEK293T
# Excerpt: as §1, §2, §3, §4
structure (smiles),measurement,setting,value
"NCCCC(=O)O [GABA, γ‐aminobutyric acid]",Hill coefficient,α6β2γ2 GABAA receptor,1.405 ± 0.074
same,Max Current (pA),α6β2γ2 GABAA receptor,-3276 ± 578.1 pA
same,Max Current (pA),[1],-4487 ± 397.2 pA
same,Hill coefficient,[2],1.796
same,Max Current (pA),[2],-1724 ± 286.1 pA
same,Hill coefficient,[3],1.452 ± 0.151
same,Max Current (pA),[3],-7835 pA
same,Hill coefficient,α4β2γ2 GABAA receptor,1.113 ± 0.063
same,Max Current (pA),α4β2γ2 GABAA receptor,-3039 ± 347.3 pA
same,Hill coefficient,[4],1.444 ± 0.104
same,Max Current (pA),[4],-5007 ± 470.7 pA
same,Hill coefficient,α1β2γ2 GABAA receptor,1.400 ± 0.102
same,Max Current (pA),α1β2γ2 GABAA receptor,-4218 ± 601.6 pA
same,Hill coefficient,[5],1.494 ± 0.101
same,Max Current (pA),[5],-1765 ± 246.0 pA
same,Hill coefficient,α5β2γ2 GABAA receptor,1.547 ± 0.123
same,Max Current (pA),α5β2γ2 GABAA receptor,-5115 ± 315.9 pA
same,Hill coefficient,[6],1.420 ± 0.064
same,Max Current (pA),[6],-4543 ± 553.0 pA
same,Hill coefficient,α2β2γ2 GABAA receptor,1.581 ± 0.074
same,Max Current (pA),α2β2γ2 GABAA receptor,-3326 ± 356.7 pA
same,Max Current (pA),[7],-1993 ± 189.7 pA
same,Hill coefficient,[8],1.434 ± 0.059
same,Max Current (pA),[8],-6073 ± 742.0 pA
